Data as given in a melting point compilation (Tetko et al.).
Peptide text beside a SMILES is read from it.

Compound	melting point
O=C(O)c1ccc(-c2ccc(O)cc2)cc1	316 °C
CC(C)C(c1ccccc1)C(C)C	-24.5 °C
Cc1ccc(Nc2ccc(Nc3ccc(C)cc3)c3c2C(=O)c2ccccc2C3=O)cc1	218 °C
ON=Cc1c(Cl)cccc1Cl	149 °C
NNc1ccc(Br)cc1	108 °C
Cc1cc(/C=C/c2ccccc2N)c(N)cc1N	151 °C
O=C=Nc1ccc(Cl)cc1	30 °C
N#CCC(=O)c1cccs1	112 °C
Cc1cccc(C(C)(C)C)c1O	31 °C
NCc1cc(C(F)(F)F)cc(C(F)(F)F)c1	57 °C
Cc1cc(C(=O)O)cc(C)c1OCc1ccccc1	159 °C
COC(=O)c1sccc1Oc1ccc(Cl)cc1[N+](=O)[O-]	125 to 128 °C
CCOC(=O)c1cc(C(C)=O)ccc1OCC	53 °C
Cc1cc(C(=O)Cl)ccc1Br	26 °C
O=CC=CC=Cc1ccccc1	42.5 °C
CC1(C)[C@H](C(=O)OC(C#N)c2cccc(Oc3ccccc3)c2)[C@@H]1C=C(Cl)Cl (stereo partly specified)	79 °C
Nc1ccccc1Cn1cncn1	56 to 57 °C
COc1ccc(C)c(C(=O)O)c1	147 °C
Cc1ccnc2c1ccc1c(C)ccnc12	194 °C
COc1ccccc1C1(C)CCc2oc3ccc(Br)cc3c2-c2oc(C)cc21 (stereo unspecified)	209 °C
Oc1cccc2c1CCCC2O (stereo unspecified)	132 to 134 °C

Compound	melting point
N=CN	81 °C
O=C1CCC(=O)C1	152 °C
C=C1C(=O)C23C(OC)CC4C5(C)CCCC4(COC5OC(C)=O)C2C(OC(C)=O)CC1C3OC(C)=O (stereo unspecified)	214 °C
COC(=O)C1=C(C)NC(=S)NC1c1ccccc1 (stereo unspecified)	224 to 225 °C
CCCCCCCCCCCCCCCCCCC(=O)NC	91 to 94 °C
CSc1nc2[nH]c(Cc3ccccc3)nc(=O)c2n1C	286 °C
CSc1sc(C#N)c2c1C(=O)CC(C)(C)C2	169 to 171 °C
CCNc1nc2c(cc1C(=O)OC)c(=O)oc1ccccc12	210 °C
CCCCCCCCCCCCCCCC(=O)CC	51 °C
Cc1cc(I)ccc1N	86 °C
Cc1cccc(/N=N/c2c(N)nn3c(C(F)(F)F)cc(=O)[nH]c23)c1	280 °C
COC(=O)N(C(=O)N1COC2(C(=O)OC)Cc3cc(Cl)ccc3C2=N1)c1ccc(OC(F)(F)F)cc1 (stereo unspecified)	88.1 °C
N=C(Nc1ccccc1)c1ccccc1	119 °C
CCOC(=O)CC(C(C)=O)C(=O)OCC (stereo unspecified)	-8 °C
O=[N+]([O-])c1ccc(-c2nnc3n2NC(c2ccccc2O)S3)cc1 (stereo unspecified)	195 °C
Oc1ccc(C2CCCC2)cc1	65 °C
O=C(O)C(Br)c1ccccc1Cl (stereo unspecified)	107 °C
CCC(C)C(C)(COC(N)=O)COC(N)=O (stereo unspecified)	77 °C
CC(=O)OC(c1ccccc1)C(Cl)(Cl)Cl (stereo unspecified)	87.5 °C
Cc1nn(-c2cc(NS(C)(=O)=O)c(Cl)cc2Cl)c(=O)n1C(F)F	122 °C
O=C(O)C(O)(C(F)(F)F)C(F)(F)F	81 °C

Compound	melting point
CC(=O)c1cn(C)c2ccccc12	107 °C
NNC(=S)Nc1cccc(Cl)c1	132 °C
FC(F)C(F)(F)C(F)(F)C(F)(F)C(F)(F)C(F)(F)C(F)(F)C(F)(F)C(F)(F)C(F)F	42 to 43 °C
NNC(=O)COc1ccc(F)cc1	125 °C
CC1=NNC(=O)C1=NNc1cccc(F)c1	218 °C
N#C/C(=N/Nc1ccc(Cl)cc1)c1nc(-c2ccccc2)cs1	168 °C
C1CCN(C2CCNCC2)C1	52 to 57 °C
CC1=CCC(C(C)(C)O)CC1 (stereo unspecified)	40.5 °C
O=C1/C(=N/Nc2cccc(C(F)(F)F)c2)C(C(F)(F)F)=NN1c1ccccc1	160 °C
FC(F)(F)c1ccc(N2CCOCC2)c(CCl)c1	52 to 54 °C
O=C(O)c1ccc(Cl)cc1Cl	164 °C
Cn1cnc(C#N)c1C#N	85 °C
N[C@@H](CCl)C(=O)O	156 to 157 °C
c1ccc2c(c1)cc1ccc3cc4ccccc4c4ccc2c1c34	282 °C
O=C(c1ccc[nH]1)C(Cl)(Cl)Cl	72 to 74 °C
CCc1cn(C2CC(O)C(CO)O2)c(=O)[nH]c1=O (stereo unspecified)	152 °C
CCC(=C(c1ccccc1)c1ccc(OCCN(C)C)cc1)c1ccccc1	96 °C
CCCCOc1ccc(/C=N/NC(=O)C(=O)N/N=C/c2ccc(OCCCC)cc2)cc1	301 to 303 °C
C(=C(\Oc1ccccc1)c1nc2ccccc2s1)/c1ccc2c(c1)OCO2	170 °C
O=C(O)c1nc(Cl)ccc1Cl	151 °C
O=C(CBr)c1cccc(C(F)(F)F)c1	22 °C

Compound	melting point
OCCCC(Cl)(Cl)CO	40 to 42 °C
IC=CI	-14 °C
Clc1c(Cl)c(Cl)c2c(Cl)c(Cl)c(Cl)c(Cl)c2c1Cl	198 °C
Cc1ccc(C(=O)N(NC(=O)c2ccccc2)C(C)(C)C)cc1	188 °C
Cc1nnc(-c2cccc(S(=O)(=O)Cl)c2)o1	56 to 59 °C
Nc1cc(-c2ccc(Cl)cc2)n[nH]1	174 to 176 °C
CC(=O)C=P(c1ccccc1)(c1ccccc1)c1ccccc1	204 °C
CCOC(=O)c1c(-c2ccc(Cl)cc2)csc1N	111 to 112 °C
CC(C)(C)OC(=O)NC(Cc1ccc(Br)s1)C(=O)O (stereo unspecified)	70.3 °C
CCOCCN(Cc1ccc(CN(CCOCC)C(=O)C(Cl)Cl)cc1)C(=O)C(Cl)Cl	140 °C
CC12CCC3C(CCC4CC(=NO)CCC43C)C1CCC2O (stereo unspecified)	198 to 199 °C
CC(=O)OC1CC(=O)OC1=O (stereo unspecified)	55 °C
Nc1cc(C(F)(F)F)ccc1N1CCOCC1	135 to 137 °C
Cc1n[nH]c(C)c1/C=C/c1ccccc1	184 °C
c1ccc(-c2nccnc2-c2ccccc2)cc1	121 °C
Cc1cc(C=O)no1	31 to 33 °C
CC(=O)NC(C)=O	79 °C
OC1C2COC(O2)C(O)C1O (stereo unspecified)	183 °C
Oc1ccc(-c2nnc3n2NC(c2ccccc2O)S3)cc1 (stereo unspecified)	241 °C
NCC(=O)N[C@@H](CCC(=O)O)C(=O)O (H-Gly-Glu-OH)	155 to 158 °C
c1ccc(C2=C(c3ccccc3)C(c3ccccc3)C(c3ccccc3)=C2c2ccccc2)cc1	254 to 257 °C

More lines, now with the values ahead:

melting point	Compound
111 to 113 °C	CSC(=Nc1nnc(-c2ccccc2)s1)SC
76 to 78 °C	Nc1cccc(Oc2ccccn2)c1
156 °C	O=[N+]([O-])c1ccc(NN=C(c2ccccc2)c2ccccc2)cc1
44 °C	O=[N+]([O-])c1ccc(F)c(Cl)c1
110 °C	CC1=C(C(=O)Nc2ccccc2)CCCO1
34.5 °C	CCC1(O)CCCCC1
148 °C	COc1ccccc1N/N=C1\C(=O)N(CN2CCCCC2)N=C1C
97 °C	Sc1ccc(S)cc1
176 °C	CCOC(=O)C(=O)C=P(c1ccccc1)(c1ccccc1)c1ccccc1
60 °C	C=CC1CNCCC1CCC(=O)c1ccnc2ccc(OC)cc12 (stereo unspecified)
32 °C	CCCCCCCCCCCCCCCCCBr
65 to 68 °C	CC1=C(C)C([Si](C)(C)C2C(C)=C(C)C(C)=C2C)C(C)=C1C
12.8 °C	c1cc2c3c(c1)CCC3CCC2 (stereo unspecified)
94 to 97 °C	O=C1CSCC(=O)O1
170 to 172 °C	COc1ccc(C=Nc2n[nH]c(N=Cc3ccc(OC)c(OC)c3)c2Cc2ccc(Cl)cc2)cc1OC
27 °C	CCCC(c1ccccc1)c1ccccc1
62 to 70 °C	Brc1cccc(Cn2ccnc2)c1
75 to 76 °C	Cc1nn(-c2ccccc2)nc1CO
24 °C	CC(C)(O)Cc1ccccc1
40 °C	CCC(CC)(CBr)CBr
119 °C	Cc1cccnc1C(=O)O
262 to 268 °C	O=C(O)c1cccc(-n2cncn2)c1
130 °C	O=[N+]([O-])c1cc(-c2ncco2)cc([N+](=O)[O-])c1
108 to 145 °C	OC1CSC(O)CS1 (stereo unspecified)

melting point	Compound
89 °C	Nc1cccc(-c2ccsc2)c1
58 to 59.5 °C	Fc1c(Cl)c(F)c(Br)c(F)c1Cl
70 °C	CCOCCc1ccc(OCCNc2ncnc(CC)c2Cl)c(C)c1C
144 °C	CS(=O)(=O)Nc1ccc([N+](=O)[O-])cc1Oc1ccccc1
122 °C	CCCCCCCCCCOc1c(OC)cc(C(N)=O)cc1OC
84 to 85 °C	CC(C)(C)OC(=O)N1CCN(Cc2cccc([N+](=O)[O-])c2)CC1
121 to 122 °C	N#Cc1csc2ccc(Cl)cc12
206 °C	CC12CCC(CC(Br)c3ccccc3)(OC1=O)C2(C)C (stereo unspecified)
117 to 120 °C	Oc1ccc(Cl)c2ccccc12
7 °C	CC1=CC(=O)OC(C)(C)O1
59 °C	O=C(Cl)c1cccc(C(=O)Cl)n1
143 to 146 °C	Brc1ccc(-c2ccc(Br)s2)s1
103 °C	Nc1ccc2ccccc2c1N=Nc1ccccc1
49 °C	CCOC(=O)c1ccc(-c2ccccc2)cc1
62 °C	Cc1ccccc1NC=O
114 °C	C#C[C@@]1(OC)CC[C@H]2[C@@H]3CCc4cc(OC)ccc4[C@H]3CC[C@@]21C
97 °C	CCOC(=O)c1cc(-c2ccccc2)n(-c2ccccc2)c1C
33 to 35 °C	CCOC(=O)C=C(C)N
137 to 138 °C	O=c1c(Br)c(SCc2ccccc2)cnn1-c1ccccc1
199 to 200 °C	O=C1Nc2c(Br)cccc2C1=O
270 °C	Cc1nc2ccccc2[nH]c1=O
51 to 52 °C	O=S(=O)(Cl)c1ccccc1I
96 to 98 °C	N#Cc1cc([N+](=O)[O-])ccc1-n1cccc1
